Two compounds from PMC3276500, “Caffeic Acid Phenethyl Ester and Its Amide Analogue Are Potent Inhibitors of Leukotriene Biosynthesis in Human Polymorphonuclear Leukocytes” (PLoS ONE, 2012) can be followed below.

This assay addresses T1, 5-lipoxygenase (5-LO) (Homo sapiens, UniProt P09917).
T1 construct: gene ALOX5
T1 sequence (P09917 1-674): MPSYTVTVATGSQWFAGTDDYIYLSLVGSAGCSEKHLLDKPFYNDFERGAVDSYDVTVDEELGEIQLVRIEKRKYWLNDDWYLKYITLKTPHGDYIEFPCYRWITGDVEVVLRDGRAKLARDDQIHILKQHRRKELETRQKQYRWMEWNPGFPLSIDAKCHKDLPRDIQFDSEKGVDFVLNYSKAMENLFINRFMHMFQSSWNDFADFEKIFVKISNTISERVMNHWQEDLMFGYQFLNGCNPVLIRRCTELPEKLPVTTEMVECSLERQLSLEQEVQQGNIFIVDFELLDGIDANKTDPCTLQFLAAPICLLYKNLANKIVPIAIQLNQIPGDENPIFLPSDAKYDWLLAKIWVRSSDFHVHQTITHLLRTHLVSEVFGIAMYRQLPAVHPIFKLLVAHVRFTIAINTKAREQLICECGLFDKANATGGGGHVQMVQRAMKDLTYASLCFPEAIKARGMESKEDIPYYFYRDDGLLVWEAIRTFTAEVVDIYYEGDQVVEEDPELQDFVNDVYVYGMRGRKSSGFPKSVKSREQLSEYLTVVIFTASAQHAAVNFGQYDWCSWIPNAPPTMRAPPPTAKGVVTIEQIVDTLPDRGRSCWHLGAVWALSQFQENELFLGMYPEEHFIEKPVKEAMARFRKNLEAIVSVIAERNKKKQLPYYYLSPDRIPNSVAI
Nature of the assay: cell-free 5-LO activity assay in lysate supernatant of HEK293 cells stably transfected with 5-LO, RP-HPLC of products. It counts as biochemical.

In turn, `O=C(/C=C/c1ccc(O)c(O)c1)OCCc1ccccc1` [compound 1, CAPE] returned an IC50 of 130 nM.

The compound `O=C(/C=C/c1ccc(O)c(O)c1)NCCc1ccccc1` [compound 9] yielded an IC50 of 2380 nM. Against the preceding compound, the IC50 is about 18-fold higher.
